Source: PMC9445877, “Blockade of TMPRSS2-mediated priming of SARS-CoV-2 by lactoferricin” (Frontiers in Immunology, 2022)
“Also recorded” adds a separate entry of the source. Read-outs that look alike come from different tables or passages of the source. Peptide text beside a SMILES is read from it.

Legend:
[1] = molecular target: T1, plasmin (Homo sapiens, UniProt P00747); test: In vitro proteolysis assay, plasmin; type: biochemical; conditions: 37°C; for inhibition of proteolytic activity of plasmin (in words): plasmin 10 nM, Tris-HCl buffer, Boc-Gln-Ala-Arg-AMC
T1 construct: purchased Roche Diagnostics GmbH, Mannheim, Germany #10602361001; host or cells: human plasma
Protocol: (§1) Figure 1 Effect of LF and the LF-derived peptides pLF1-pLF3 on the activity of serine proteases. Proteolytic activities of purified TMPRSS2 (A), plasmin (B), elastase (C), and trypsin (D) were measured with or without peptides pLF1, pLF2, pLF3, LF or the control peptide pCTR at 37°C in Tris-HCl buffer using the fluorogenic substrate Boc-Gln-Ala-Arg-AMC. The reaction was monitored using an ELISA reader for the indicated time intervals.
(§2) The proteolytic activities of plasmin (10 nM; from human plasma; #10602361001, Roche Diagnostics GmbH, Mannheim, Germany), trypsin (10 nM; from bovine pancreas; #T1005, Sigma-Aldrich, St. Louis, MO), elastase (20 nM; from porcine pancreas; #E1250, Sigma-Aldrich) and TMPRSS2 (25 nM; recombinant protein produced in mammalian cells; #MBS1193731, MyBioSource, San Diego, CA) were measured in a Nunc black fluorescence-based cell assay plate (Sigma-Aldrich) in Tris-HCl buffer (20 mM, pH 8.0, 150 mM NaCl). The proteases were incubated with or without inhibitory and control compounds at 37°C for 30 min, and then the fluorogenic substrate (Boc-Gln-Ala-Arg-AMC; 25 µM; #BML-P237, ENZO Life Sciences, Lörrach, Germany) was added. The reaction was measured using an ELISA plate reader (Synergy H1 BioTek microplate reader, Winooski, Vermont, U.S., or TECAN GENios, GMI, USA) under the excitation wavelength of 380 nm and the emission wavelength of 460 nm at the indicated time points.
Optionally ( Figure 1B , inset), purified active plasmin (10 mU/mL) was coated in PBS directly on a 96-well Falcon transparent plate for 2 h at 37°C. The wells were then blocked with 1% BSA, washed, and then incubated in PBS at 37°C with the chromogenic plasmin substrate S-2251 (0.8 mM, D-Val-Leu-Lys-pNA, CoaChrom Diagnostica). In this case, the absorbance change at 405 nm was monitored at different time points by using an ELISA plate reader (SpectraMax M5, Molecular Devices).

[2] = molecular target: T2, TMPRSS2 (Homo sapiens, UniProt O15393); test: In vitro proteolysis assay, TMPRSS2, fluorogenic substrate Boc-Gln-Ala-Arg-AMC; type: biochemical; conditions: 37°C, Boc-Gln-Ala-Arg-AMC; for inhibition of proteolytic activity of TMPRSS2 (in words): Tris-HCl buffer
T2 construct: TMPRSS2 (25 nM; recombinant protein produced in mammalian cells; #MBS1193731, MyBioSource, San Diego, CA); purchased MyBioSource, San Diego, CA #MBS1193731; host or cells: mammalian cells
Protocol: as §1, §2

[3] = tested on: Vero cells; test: Cytotoxicity assay in Vero cells (EZ4U); type: cell-based, African green monkey; conditions: 48 h, without virus, 20 and 40 µg/mL, DMEM/2% FCS, 3 experiments, 80% viability cut-off
Protocol: Vero cells were seeded into 96-well flat-bottom plates (1×10^4 cells, 80 µl/well) in DMEM medium supplemented with 10% FCS, antibiotics, and non-essential amino acids. On the day of the assay, the medium was exchanged for the reduced serum supplemented DMEM (DMEM/2% FCS) with the peptides or a vehicle only at the designated concentration (100 µl/well). As a positive control, 30% DMSO in DMEM/2% FCS was used. Negative control cells were incubated in DMEM/2% FCS only. Two days (48 h) later, cell viability was assessed as we did previously ([52]) using the EZ4U cell proliferation and cytotoxicity assay substrate (Biomedica Immunoassays, Vienna, Austria).

[4] = tested on: SARS-CoV-2 infection, Vero cells; type: cell-based, SARS-CoV-2 (African green monkey cells); conditions: n = 3
[5] = tested on: SARS-CoV-2; type: cell-based; conditions: for SARS-CoV-2 infection of permissive cells (in words): summary statement
[6] = tested on: elastase; test: In vitro proteolysis assay, elastase; type: biochemical, porcine; conditions: elastase 20 nM; 37°C, Tris-HCl buffer, Boc-Gln-Ala-Arg-AMC
Protocol: as §1
as §2, with “The proteases were incubated with or without inhibitory and control compounds at 37°C for 30 min, and then the fluorogenic substrate (Boc-Gln-Ala-Arg-AMC; 25 µM; #BML-P237, ENZO Life Sciences, Lörrach, Germany) was added.” left out

[7] = tested on: SARS-CoV-2 S protein cleavage by TMPRSS2; test: SARS-CoV-2 S protein digestion assay with TMPRSS2 (immunoblot); type: biochemical; conditions: S protein 1 µg, TMPRSS2 25 nM, 120 min, 37°C, Tris-HCl 20 mM pH 7.5, 150 mM NaCl, n = 4

T2 sequence (O15393 256-492 limits assumed): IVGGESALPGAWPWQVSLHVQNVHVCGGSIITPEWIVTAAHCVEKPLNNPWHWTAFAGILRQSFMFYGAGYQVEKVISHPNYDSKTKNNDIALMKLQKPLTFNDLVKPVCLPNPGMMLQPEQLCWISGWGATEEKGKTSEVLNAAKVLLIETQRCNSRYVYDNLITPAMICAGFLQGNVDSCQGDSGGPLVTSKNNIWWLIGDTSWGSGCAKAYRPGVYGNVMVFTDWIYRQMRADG
T2 sequence (O15393 106-255 limits assumed): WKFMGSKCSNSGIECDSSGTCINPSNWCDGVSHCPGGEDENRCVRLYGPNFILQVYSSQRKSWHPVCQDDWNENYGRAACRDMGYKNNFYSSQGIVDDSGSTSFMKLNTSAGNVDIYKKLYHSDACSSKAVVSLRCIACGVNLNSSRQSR
T1 sequence (P00747 581-810 limits assumed): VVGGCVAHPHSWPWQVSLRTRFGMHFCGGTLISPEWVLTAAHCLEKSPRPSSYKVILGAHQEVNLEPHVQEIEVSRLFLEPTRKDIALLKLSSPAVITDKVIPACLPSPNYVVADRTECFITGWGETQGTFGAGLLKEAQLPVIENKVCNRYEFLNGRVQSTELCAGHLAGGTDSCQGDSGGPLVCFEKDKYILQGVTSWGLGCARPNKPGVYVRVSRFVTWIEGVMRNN
T1 sequence (P00747 97-580 limits assumed): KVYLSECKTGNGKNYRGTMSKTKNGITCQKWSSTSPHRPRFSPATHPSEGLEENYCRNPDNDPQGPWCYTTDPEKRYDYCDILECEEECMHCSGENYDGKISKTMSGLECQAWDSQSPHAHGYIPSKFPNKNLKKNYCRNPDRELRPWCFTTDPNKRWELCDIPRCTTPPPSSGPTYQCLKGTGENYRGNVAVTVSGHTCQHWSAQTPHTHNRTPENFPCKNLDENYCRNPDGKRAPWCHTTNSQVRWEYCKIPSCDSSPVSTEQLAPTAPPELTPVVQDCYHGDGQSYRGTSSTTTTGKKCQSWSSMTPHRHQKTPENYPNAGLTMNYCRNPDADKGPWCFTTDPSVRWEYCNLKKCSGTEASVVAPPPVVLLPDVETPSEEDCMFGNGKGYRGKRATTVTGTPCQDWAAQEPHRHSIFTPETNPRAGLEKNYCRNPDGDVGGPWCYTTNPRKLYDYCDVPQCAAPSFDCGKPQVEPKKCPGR

Q: For `CC(C)[C@H](NC(=O)[C@H](C)NC(=O)[C@H](CS)NC(=O)[C@H](Cc1c[nH]c2ccccc12)NC(=O)[C@H](CCC(N)=O)NC(=O)[C@@H](NC(=O)[C@H](CO)NC(=O)[C@H](CCCNC(=N)N)NC(=O)[C@H](CCCNC(=N)N)NC(=O)[C@H](CCCNC(=N)N)NC(=O)CN)C(C)C)C(=O)N[C@@H](CO)C(=O)N[C@@H](CCC(N)=O)C(=O)N1CCC[C@H]1C(=O)N[C@@H](CCC(=O)O)C(=O)N[C@@H](C)C(=O)N[C@H](C(=O)N[C@@H](CCCCN)C(=O)N[C@@H](CS)C(=O)O)[C@@H](C)O` [pLF1] (H-GRRRSVQWCAVSQPEATKC-OH), which IC50 ([1]; Figure 1B inset: plasmin 10 mU/mL coated in PBS, chromogenic substrate S-2251 0.8 mM, PBS, absorbance 405 nm, relative IC50, 4PL fit, experiments at least three times, read-out: half-maximum inhibitory concentration (IC50), plasmin (converted)) is on record?
A: 3.19 µM

Q: And the “maximum inhibition of TMPRSS2 (plateau)” value ([2]; at 40 - 80 µg/mL)?
A: ~ 40%

Q: How did the “inhibition of proteolytic activity of plasmin (in words)” value [1] turn out when aprotinin [reference compound] was run?
A: blunted the proteolytic activity of both proteases

Q: What about the “inhibition of proteolytic activity of TMPRSS2 (in words)” value [2] of the same molecule?
A: blunted the proteolytic activity of both proteases

Q: How did the “cytotoxicity, Vero cells (in words)” value [3] turn out when `C[S+](C)[O-]` [30% DMSO] was run?
A: significantly (p***<0.0005) affected viability of Vero cells

Q: Which results are given for “GRRRRSVQWCAVSQPEATKCFQWQRNMRKVRGPPVSCIKRDSPIQCIQA [LFC, natural peptide of 49 amino acids from the N-terminus of human LF, produced by pepsin cleavage]”?
A: infection rate of replication-competent SARS-CoV-2 in Vero cells (in words) ([4]; 80 µg/mL, pre-incubation approx. 1 h): reduced the infection rate; inhibition of proteolytic activity of TMPRSS2 (in words) [2]: inhibitory effect on TMPRSS2 comparable to that of pLF1; inhibition of proteolytic activity of TMPRSS2 (in words) ([2]; listed as lactoferricin): significantly inhibited; inhibition of SARS-CoV-2 infection in Vero and Calu-3 cells ([5]; Vero and Calu-3 cells, summary statement in Discussion): 40-50%; SARS-CoV-2 infection of permissive cells (in words) [5]: inhibits cell entry of SARS-CoV-2 through blocking TMPRSS2-mediated virus priming; SARS-CoV-2 infection of permissive cells (in words) ([5]; listed as lactoferricin): significantly inhibited

Q: With “NFRTKSCPLELAKELKLCS [pCTR, negative control peptide, a scrambled variant of pLF3, reference compound]” as the molecule, how does the “inhibition of proteolytic activity of elastase (in words)” value [6] read?
A: neither full-length LF nor other tested peptides derived from LF, nor the control peptide pCTR, significantly reduced

Q: What about the “inhibition of proteolytic activity of plasmin (in words)” value [1] of the same molecule?
A: neither full-length LF nor a control peptide (pCTR), was able to inhibit; also recorded: neither full-length LF nor other tested peptides derived from LF, nor the control peptide pCTR, significantly reduced

Q: What about the “inhibition of SARS-CoV-2 infection, Vero cells (in words)” value ([4]; pre-incubation 40-60 min) of the same molecule?
A: did not show any inhibitory potential

Q: What about the “inhibition of proteolytic activity of TMPRSS2 (in words)” value [2] of the same molecule?
A: neither full-length LF nor pCTR inhibited; also recorded: neither full-length LF nor other tested peptides derived from LF, nor the control peptide pCTR, significantly reduced

Q: And the “cleavage of SARS-CoV-2 S protein by TMPRSS2 (in words)” value [7]?
A: no such effect was seen
